Assay results published in patent publication US20020107282A1, “Cosmetic composition containing an aminophenol derivative and an isoflavonoid” (L'OREAL, priority 2000, published 2002).

Test system: fungal tyrosinase
Experiment: in vitro inhibition of the activity of fungal tyrosinase (OD at 475 nm)
Format: biochemical
Details: active agent alone in ethanol, C1 = 1.25 × 10^−4 M
Experimental: This test consists in measuring the absorbence (optical density OD) at 475 nm as a function of time for each of the depigmenting active agents tested. These agents are dissolved (at various concentrations) in a suitable solvent in the presence of a phosphate buffer, 1 ml of L-tyrosine at 2.0×10^−3 M in a phosphate buffer, 0.1 ml of L-Dopa at 1.0×10^−4 M in a phosphate buffer and 50 μl of a fungal tyrosinase solution at 1 g/l in a phosphate buffer, compared with a control consisting of the solvent used at the same concentration in the phosphate buffer. A percentage of inhibition is then determined by the following equation: [formula] […] These two active agents in the concentrations C1 and C2 found above are then mixed together. The theoretical percentage of inhibition of the mixture (or theoretical IC), corresponding to the sum of the percentages of inhibition observed for the individual compounds, is then calculated, and the percentage of inhibition obtained (or measured IC) is measured under the same experimental conditions as for the compounds tested separately.

CCOC(=O)Nc1ccc(O)cc1 [N-ethoxy-carbonyl-4-aminophenol, N-ethyloxycarbonyl-4-aminophenol]
IC obtained (%) (inhibition actually obtained): 23.5% | Theoretical IC (%) (inhibition value that should be observed (close to 25%)): 24.8%
